Source: US10004739B2, “Methods for treating cancer by inhibiting FGFR3/TACC3 fusion protein” (Astellas Pharma Inc., priority 2012, dated 2018)
Where two headings read alike, the source gives them in different places.

Legend:
[1] = test system: FGFR3-TACC3_v2 expression/NIH3T3 cells; experiment: Anchorage-independent cell proliferation, spheroid plate, CellTiter-Glo; conditions: Mus musculus, NIH3T3, 96 h, read-out: growth inhibition rate (%), v2
Procedure: (§4) The FGFR3-TACC3_v1 expression/NIH3T3 cells were seeded in a 96-well spheroid plate (Sumilon Cell-Tight Spheroid 96U; SUMITOMO BAKELITE CO., LTD.) with D-MEM containing 10% fetal bovine serum, such that the cell count in each well became 1×10^3. Moreover, as a positive control, a well added only with the medium was prepared. […] As a negative control, DMSO as a vehicle of the compound was added thereto at the same concentration (0.1%) as set at the time of adding the compound. Thereafter, the cells were cultured for 4 days at 37° C. in the presence of 5% CO2, and a reagent for cell count measurement (CellTiter-Glo™ Luminescent Cell Viability Assay; Promega Corporation) was added thereto. The resultant was stirred for 20 minutes, and the cell count was measured using a luminometer.
(§5) Moreover, the respective compounds were added such that the final concentration thereof became 100 nM, 10 nM, and 1 nM.

[2] = test system: FGFR3-TACC3_v3 expression/NIH3T3 cells; experiment: as above; conditions: Mus musculus, NIH3T3, 96 h, read-out: growth inhibition rate (%), v3
Procedure: as §4, §5

[3] = test system: FGFR3-TACC3_v1 expression/NIH3T3 cells; experiment: as above; conditions: Mus musculus, NIH3T3, 96 h, read-out: growth inhibition rate (%), v1
Procedure: as §4, §5

[4] = test system: FGFR3-TACC3_v3 (N-FLAG) fusion polypeptide; experiment: In vitro kinase activity of FGFR3-TACC3_v3 (N-FLAG) fusion polypeptide (HTRF KinEASE-TK, peptide substrate); type: biochemical, human; conditions: ATP 100 μM
[5] = test system: FGFR3-TACC3_v2 (N-FLAG) fusion polypeptide; experiment: In vitro kinase activity of FGFR3-TACC3_v2 (N-FLAG) fusion polypeptide (HTRF KinEASE-TK, peptide substrate); type: biochemical, human; conditions: ATP 100 μM
[6] = test system: FGFR3-TACC3_v1 (N-FLAG) fusion polypeptide; experiment: In vitro kinase activity of FGFR3-TACC3_v1 (N-FLAG) fusion polypeptide (HTRF KinEASE-TK, peptide substrate); type: biochemical, human; conditions: ATP 100 μM
RT-112 cells = experiment: Anchorage-independent proliferation of RT-112 bladder cancer cell line, spheroid plate, CellTiter-Glo; type: cell-based; conditions: Homo sapiens
Procedure: Moreover, as a positive control, a well added only with the medium was prepared. […] As a negative control, DMSO as a vehicle of the compound was added thereto at the same concentration (0.1%) at the time of adding the compound. Thereafter, the cells were cultured for 5 days at 37° C. in the presence of 5% CO2, and a reagent for cell count measurement (CellTiter-Glo™ Luminescent Cell Viability Assay; Promega Corporation) was added thereto. The resultant was stirred for 20 minutes, and the cell count was measured using a luminometer.
as §5

[7] = test system: cells expressing FGFR3-TACC3 fusion gene; conditions: reported in Science 2012; 337:1231-5; cited from earlier work
[8] = test system: FGFR3-TACC3_v3 expression/NIH3T3 cells (tumors); experiment: Anti-tumorigenic activity in nude mice bearing subcutaneous tumors; type: in vivo; conditions: 30 mg/kg orally once a day for 11 days
Description: (§1) Cg-Foxn1Nu/Crlcrlj (Nu/Nu) nude mice (Charles River Laboratories, Japan) by means of subcutaneous injection performed in the back of the mice. Three days after the inoculation, AZD4547 and BGJ398 which are FGFR3-TACC3 fusion polypeptide inhibitors were started to be administered. For the test, 4 to 5 mice were assigned to each of the vehicle group and the compound group, AZD4547 and BGJ398 were suspended in a vehicle composed of 0.5% methyl cellulose (Shin-Etsu Chemical Co., Ltd.)/99.5% distilled water, and each of the compounds was orally administered at a dosage of 30 mg/kg. The administration was performed once a day for 11 days, and the body weight of mice and a tumor diameter were measured every 2 or 3 days. A tumor volume was calculated using the following formula. [Tumor volume (mm^3)]=[major axis of tumor (mm)]×[minor axis of tumor (mm)]^2×0.5

[9] = test system: FGFR3-TACC3_v2 expression/NIH3T3 cells (tumors); experiment: as above; type: in vivo; conditions: 30 mg/kg orally once a day for 11 days
Description: as §1

[10] = test system: FGFR3-TACC3_v1 expression/NIH3T3 cells (tumors); experiment: as above; type: in vivo; conditions: 30 mg/kg orally once a day for 11 days
Description: as §1

FGFR3-TACC3_v3 = target: T1, FGFR3-TACC3_v3 (Homo sapiens, UniProt P22607); experiment: Kinase inhibition in tumor: phosphorylated FGFR3/total FGFR3 by ELISA; type: in vivo, nude mice; conditions: 4 hours after the final administration; dosing as Example 13
T1 construct: in order to express a full length of ORF of FGFR3-TACC3_v3 as a protein; expressed in transfected cells; host or cells: NIH3T3 cells infected with FGFR3-TACC3_v3/pMXs-puro retrovirus, inoculated into nude mice
Procedure: (§2) For the test, 5 mice were assigned to each of the vehicle group and the compound group, and 4 hours after the final administration, tumors were extracted by dissection. Thereafter, by using a lysis solution (Cell Lysis Buffer; Cell Signaling Technology, Inc., Phosphatase Inhibitor Cocktail; Thermo Fisher Scientific Inc., Complete; Roche, Ltd.), protein extracts of the tumors were rapidly prepared, and the total FGFR3 level and a phosphorylated FGFR3 level of the tumors were measured using an ELISA kit (R&D Systems). ELISA was performed according to the attached procedure manual, but detection was performed in a different way in which the chemiluminescence detection is conducted using a chemiluminescent reagent (BM chemiluminescence ELISA substrate; Roche, Ltd.) and a luminometer (ARVO; PerkinElmer Inc.).
(§3) A level obtained by correcting the phosphorylated FGFR3 level by using the total FGFR3 level (phosphorylated FGFR3 level/total FGFR3 level) was taken as a phosphorylation level.

[11] = target: T2, FGFR3-TACC3 fusion polypeptide v1 (Homo sapiens, UniProt P22607); experiment: as above; type: in vivo, nude mice; conditions: 4 hours after the final administration; dosing as Example 13
T2 construct: expressed in transfected cells; host or cells: NIH3T3 cells infected with FGFR3-TACC3_v1/pMXs-puro retrovirus, inoculated into nude mice
Procedure: as §2, §3

FGFR3-TACC3_v2 = target: T3, FGFR3-TACC3_v2 (Homo sapiens, UniProt P22607, F384L); experiment: as above; type: in vivo, nude mice; conditions: 4 hours after the final administration; dosing as Example 13
T3 construct: in order to express a full length of ORF of FGFR3-TACC3_v2 as a protein; expressed in transfected cells; host or cells: NIH3T3 cells infected with FGFR3-TACC3_v2/pMXs-puro retrovirus, inoculated into nude mice
Procedure: as §2, §3

[12] = RT-112, final concentration 1 nM, Example 30: 1×10^3 cells per well, RPMI1640 with 2 mM L-glutamine, otherwise as Example 9, read-out: growth inhibition rate (%), RT-112
[13] = RT-112, final concentration 10 nM, Example 30: 1×10^3 cells per well, RPMI1640 with 2 mM L-glutamine, otherwise as Example 9, read-out: growth inhibition rate (%), RT-112
[14] = RT-112, read-out: growth inhibition rate (%), RT-112

Molecule COc1cc(OC)c(F)c(COc2cnc(Nc3cc(CN4CCN(C)CC4)n(C)n3)nc2)c1F [Compound E, 5-[(2,6-difluoro-3,5-dimethoxybenzyl)oxy]-N-{1-methyl-5-[(4-methylpiperazin-1-yl)methyl]-1H-pyrazol-3-yl}pyrimidin-2-amine] has an inhibition at 0.001 µM [1] of 11%, an inhibition at 0.01 µM [1] of 29% and an inhibition at 0.1 µM [1] of 79%. It also gave an inhibition at 0.001 µM [2] of 6%, an inhibition at 0.01 µM [2] of 20% and an inhibition at 0.1 µM [2] of 81%. It also gave an inhibition at 0.001 µM [3] of 7%, an inhibition at 0.01 µM [3] of 28% and an inhibition at 0.1 µM [3] of 84%. For the same molecule, the “Inhibition against peptide substrate FGFR3-TACC3 v3” value ([4]; final concentration 1 nM) was 30%, the “Inhibition against peptide substrate FGFR3-TACC3 v3” value ([4]; final concentration 10 nM) was 55% and the “Inhibition against peptide substrate FGFR3-TACC3 v3” value ([4]; final concentration 100 nM) was 91%. The “Inhibition against peptide substrate FGFR3-TACC3 v2” value ([5]; final concentration 1 nM) was 6%, the “Inhibition against peptide substrate FGFR3-TACC3 v2” value ([5]; final concentration 10 nM) was 25% and the “Inhibition against peptide substrate FGFR3-TACC3 v2” value ([5]; final concentration 100 nM) was 78%. For the same molecule, the “Inhibition against peptide substrate FGFR3-TACC3 v1” value ([6]; final concentration 1 nM) was 7%, the “Inhibition against peptide substrate FGFR3-TACC3 v1” value ([6]; final concentration 10 nM) was 40% and the “Inhibition against peptide substrate FGFR3-TACC3 v1” value ([6]; final concentration 100 nM) was 86%. It also gave an inhibition at 0.001 µM (RT-112 cells; [12]) of 5%, an inhibition at 0.01 µM (RT-112 cells; [13]) of 33% and an inhibition at 0.1 µM (RT-112 cells; RT-112, final concentration 100 nM, Example 30: 1×10^3 cells per well, RPMI1640 with 2 mM L-glutamine, otherwise as Example 9, read-out: growth inhibition rate (%), RT-112) of 81%.
With COc1cc(OC)c(F)c(COc2cnc(Nc3cnn(C[C@@H](O)CO)c3)nc2)c1F [Compound C, (2R)-3-[4-({5-[(2,6-difluoro-3,5-dimethoxybenzyl)oxy]pyrimidin-2-yl}amino)-1H-pyrazol-1-yl]propane-1,2-diol] the inhibition at 0.001 µM [1] was 0%, the inhibition at 0.001 µM [2] was 3% and the inhibition at 0.01 µM [2] was 24%. For the same molecule, the inhibition at 0.001 µM [3] was 5%, the inhibition at 0.01 µM [3] was 44% and the “Inhibition against peptide substrate FGFR3-TACC3 v3” value ([4]; final concentration 1 nM) was 41%. For the same molecule, the “Inhibition against peptide substrate FGFR3-TACC3 v3” value ([4]; final concentration 100 nM) was 96%, the “Inhibition against peptide substrate FGFR3-TACC3 v2” value ([5]; final concentration 1 nM) was 22% and the “Inhibition against peptide substrate FGFR3-TACC3 v2” value ([5]; final concentration 10 nM) was 73%. For the same molecule, the “Inhibition against peptide substrate FGFR3-TACC3 v2” value ([5]; final concentration 100 nM) was 95%, the “Inhibition against peptide substrate FGFR3-TACC3 v1” value ([6]; final concentration 10 nM) was 79% and the “Inhibition against peptide substrate FGFR3-TACC3 v1” value ([6]; final concentration 100 nM) was 95%. For the same molecule, the inhibition at 0.001 µM (RT-112 cells; [12]) was 21% and the inhibition at 0.01 µM (RT-112 cells; [13]) was 72%.
In the case of COc1cc(CCc2cc(NC(=O)c3ccc(N4C[C@@H](C)N[C@@H](C)C4)cc3)[nH]n2)cc(OC)c1 [AZD4547, N-{5-[2-(3,5-dimethoxyphenyl)ethyl]-2H-pyrazol-3-yl}-4-[(3R,5S)-3,5-dimethylpiperazin-1-yl]benzamide], the “proliferation of cells expressing FGFR3-TACC3 fusion gene” value [7] is given as “inhibited the proliferation”, the inhibition at 0.1 µM [1] is given as 60% and the “inhibition of growth of tumors (tumor volume)” value [8] is given as 73%. The “inhibition of proliferation of tumors (tumor volume)” value [9] was 61%, the “inhibition of proliferation of tumors (tumor volume)” value [10] was 51% and the inhibition at 0.1 µM [2] was 51%. For the same molecule, the inhibition at 0.1 µM [3] was 74%, the “Inhibition against peptide substrate FGFR3-TACC3 v3” value ([4]; final concentration 1 nM) was 9% and the “Inhibition against peptide substrate FGFR3-TACC3 v3” value ([4]; final concentration 10 nM) was 52%. For the same molecule, the “Inhibition against peptide substrate FGFR3-TACC3 v3” value ([4]; final concentration 100 nM) was 74%, the “Inhibition against peptide substrate FGFR3-TACC3 v2” value ([5]; final concentration 1 nM) was 16% and the “Inhibition against peptide substrate FGFR3-TACC3 v2” value ([5]; final concentration 10 nM) was 50%. The “Inhibition against peptide substrate FGFR3-TACC3 v2” value ([5]; final concentration 100 nM) was 77%, the “Inhibition against peptide substrate FGFR3-TACC3 v1” value ([6]; final concentration 1 nM) was 13% and the “Inhibition against peptide substrate FGFR3-TACC3 v1” value ([6]; final concentration 10 nM) was 46%. The “Inhibition against peptide substrate FGFR3-TACC3 v1” value ([6]; final concentration 100 nM) was 69%, the “reduction of tyrosine auto-phosphorylation in the tumor compared to the vehicle group” value (shortened to “reduction”) (FGFR3-TACC3_v3) was 78% and the “reduction” value [11] was 58%. For the same molecule, the “reduction” value (FGFR3-TACC3_v2) was 54% and the inhibition at 0.1 µM (RT-112 cells; RT-112, 120 h, final concentration 100 nM, Example 16: 2×10^3 cells per well, 5 days, read-out: growth inhibition rate (%), RT-112) was 90%.
COc1cc(Nc2ncc(OCc3c(F)c(OC)cc(OC)c3F)cn2)ccc1N1CCC(N2CCN(C)CC2)CC1 [Compound A, 5-[(2,6-difluoro-3,5-dimethoxybenzyl)oxy]-N-{3-methoxy-4-[4-(4-methylpiperazin-1-yl)piperidin-1-yl]phenyl}pyrimidin-2-amine] gave an inhibition at 0.001 µM (RT-112 cells; [14]) of 29%, an inhibition at 0.01 µM (RT-112 cells; [14]) of 83% and an inhibition at 0.1 µM (RT-112 cells; [14]) of 90%.
